Source: patent US8324284B2, “Migrastatin analogs and uses thereof” (Sloan-Kettering Institute for Cancer Research, priority 2003, dated 2012)
Where two headings read alike, the source gives them in different places.

Columns and labels:
[1] = system: 4T1 tumor lung metastasis; experiment: 4T1 tumor lung metastasis in syngeneic mice; format: in vivo, mouse; conditions: for lung metastasis, colonies (6-thioguanine clonogenic assay): mean and standard deviation; for inhibition of lung metastasis: 10 mg/kg i.p. daily Day 7-25
Method: Female BALB/c mice (6-8 week old) were purchased from the Jackson Laboratory (Bar Harbor, Me.). All mice were housed at the Weill Medical College of Cornell University Animal Facilities in accordance with the Principles of Animal Care (NIH publication no. 85-23, revised 1985). 4T1 tumor cells (1×10^5) were injected subcutaneously into the abdominal mammary gland area of mice in 0.1 ml of a single-cell suspension in phosphate buffered saline (PBS) on Day 0. The dosage of tumor implantation was empirically determined to give rise to tumor of ˜10 mm in diameter in untreated wild type mice in 21-23 days. On Day 7, when the tumors averaged in size ˜4-5 mm in diameter, migrastatin analogs or control PBS saline were given every day by intraperitoneal injection at 10 mg/kg or 20 mg/kg per mouse until Day 25. On Day 28, the mice were sacrificed. This regiment of migrastatin analogs was well tolerated with no signs of overt toxicity. Every group included five mice. Primary tumors were measured using electronic calipers on the day when the mice were sacrificed. Tumor size was the square root of the product of two perpendicular diameters. Numbers of metastatic 4T1 cells in lung were determined by the clonogenic assay.^63 In brief, lungs were removed from each mouse on Day 28, finely minced and digested in 5 ml of enzyme cocktail containing 1×PBS and 1 mg/ml collagenase type IV for 2 hours at 37° C. on a platform rocker. After incubation, samples were filtered through 70 uM nylon cell strainers and washed twice with PBS. Resulting cells were suspended and plated serially diluted in 10 cm tissue culture dishes in medium RPMI1640 containing 60 uM thioguanine for clonogenic growth. 6-Thioguanine-resistant tumor cells formed foci after 14 days, at which time they were fixed with methanol and stained with 0.03% methylene blue for counting.
Treatment 4T1 tumor lung metastasis in syngeneic mice with migrastatin analogs (See, FIG. 4). 4T1 tumor cells (10^5) were injected s.c. in the abdominal mammary gland with 0.1 ml of a single-cell suspension. Macroketone or macrolactam at 10 mg/kg or 20 mg/kg was given i.p. on Day 7 when the tumor size was about 5 mm in diameter, and every day until Day 25. On Day 28, the mice were sacrificed. Each group comprised five mice. Lung metastasis was measured by the 6-thiogunine clonogenic assay. The mean and standard deviation are presented. In the control group (daily PBS injection), there were 61300±18900 colonies.

HUVEC = experiment: Tube formation assay; format: cell-based, human; conditions: minimal concentration causing definite disturbance of tube network; 16-18 h; tested 200, 100, 50, 25, 10 μM
Method: A protocol was designed based on the instructions from the provider (BD Bioscience, San Jose, Calif.). Briefly, wells of a 48 well culture dish were covert with 150 μL matrigel and the matrigel was gelatinized for 30 min at 37° C. A 80-90% confluent HUVEC (BD Bioscience, San Jose, Calif.) culture was trypsin treated, the detached cells were collected by centrifugation and resuspended in EGM-2 media (BD Bioscience, San Jose, Calif.). Cell concentration was adjusted to 100.000 cells/mL. 400 μL of the cell suspension were filled in the matrigel coated wells, and a solution of the inhibitor was added to the intended final concentration. The plates were incubated at 37° C. with 5% CO2 for 16-18 h. Media was removed, and the matrigel surface was washed twice with 500 μL PBS before cells were labeled with 250 μL […] Calcein AM (Pierce, Rockford, Ill.) in PBS for 30 min at 37° C. After two additional washing steps (500 μL PBS) cells were visualized under an inverted microscope. Fluorescence was excited at 488 nm and recorded at 538 nm. The minimum effect concentration was defined as the minimal inhibitor concentration that caused a definite disturbance of the complexity of the formed tube network.

KYSE-520 cells = experiment: Wound healing (scratch) assay; format: cell-based; conditions: 28 to 30 h, tested 200, 100, 50, 25, 10 μM
Method: The wound healing assay was performed based on the method described by Nakae et al. (Nakae et al., J. Antibiotics (2000), 53, 1130-1136). Briefly, adherent cells were grown in a suitable media to confluence (e.g. KYSE-520 cells in RPMI-1640 with 10% FBS). Cells were starved for 24 h in serum free media. A scratch (ca. 0.5 mm) was applied and the cell layer was washed twice with PBS after removal of the media. Fresh, serum free media with the test compound at the desired concentration was added and the cells were incubated for 28 to 30 h at 37° C., 5% CO2. The scratch size was compared to that observed for cells exposed to 100 μM Migrastatin. Test compounds associated with a scratch size equal to or larger than that observed for cells exposed to 100 μM Migrastatin were deemed to have cell migration inhibitory activity at least equal to Migrastatin.

[2] = rcm bond, toluene, 0.25 h
[3] = system: 4T1 mouse breast tumor cells; experiment: Chamber cell migration assay with 4T1 tumor cells; format: cell-based; conditions: for inhibitory activity on 4T1 tumor cell migration, in words: chamber assay; for IC50: Boyden chamber, 6-8 h, average of three experiments
Method: The biological evaluation of the compounds (in terms of their ability to inhibit cell migration) was accomplished in a Boyden chamber cell migration assay. In this assay, mouse breast tumor cells (4T1 cells) or endothelial cells (HUVECs) are seeded on the upper chamber of a transwell insert. Growth factor-containing serum is added to the lower chamber.
Chamber Cell Migration Assay (Tables 4 and 6): Cell migrations were assayed with Boyden chambers [8.0 μm pore size, polyethylene terephthalate membrane, FALCON cell culture insert (Becton-Dickinson)]. 4T1 mouse breast tumor cells or HUVECs were trypsinized and counted. 300 μl of 5−10×10^4 cells in serum-free medium was added to the upper chamber and 500 μl of medium with 10% fetal bovine serum (FBS) was added to the lower chamber. […] Cells on the inside of the transwell inserts were removed with a cotton swab, and cells on the underside of the insert were fixed and stained. Photographs of three random regions were taken and the number of cells was counted to calculate the average number of cells that have transmigrated.

[4] = Metabolic stability in mouse plasma; format: in vitro ADME; conditions: mouse plasma/PBS, 37° C.
Method: Mouse Plasma Stability Studies (Table 5): HPLC conditions: The sample is injected and separated using an Inertsil ODS3 6u 3×150 mm column with a mobile phase of MeCN and water (50% for migrastatin) at a flow of 0.4 mL/min, monitored at 220 nm at 0.02 AUFS (the retention time for migrastatin is ca. 4 min, the identity of this peak was confirmed by mass spectral analysis). Incubation and sample preparation conditions: A solution (ca. 30 mM) of chemical compound (Table 5) in DMSO is prepared. 2 μL of the solution is added to a mixture containing 200 μL of mouse plasma and 800 μL of PBS. The resulting solution is put into a water bath at 37° C., and 100 μL of sample is withdrawn at 10, 20, 30, 45, and 60 min. The precipitate is removed by centrifugation and 20 μL of the supernatant is injected onto the HPLC.

## COC1C=CCCCCC(=O)NCC(C)=CC(C)C1O (stereo not shown) [macrolactam (55), Macrolactam]
[1]; 10 mg/kg i.p. daily Day 7-25, Day 28
  lung metastasis, colonies (6-thioguanine clonogenic assay): 5333±1778 colonies
[1]; listed as macrolactam
  inhibition of lung metastasis: 91%
[1]; listed as macrolactam 55
  inhibition of lung metastasis: ~91%
[1]; 20 mg/kg i.p. daily Day 7-25, Day 28
  lung metastasis, colonies (6-thioguanine clonogenic assay): 5675±6263 colonies

## COC1C=CCCCCC(=O)OC(C(C)C(=O)CCCC2CC(=O)NC(=O)C2)C(C)=CC(C)C1O (stereo not shown) [2,3-dihydromigrastatin (41), 2,3-Dihydromigrastatin]
HUVEC
  Minimum effect concentration: 50 µM
KYSE-520 cells
  Minimum effect concentration: 25 µM

## CO[C@H]1C=CCCCCC(=O)CC/C(C)=C\[C@@H](C)[C@@H]1O[Si](C)(C)C(C)(C)C
[2]; from C=CCCCCC(=O)CC/C(C)=C\[C@@H](C)[C@H](O[Si](C)(C)C(C)(C)C)[C@H](C=C)OC, Grubbs-II, 0.508 mM, 111.0 °C
  ring closure, yield of all isomers: 81%

## CO[C@H]1C=CCC/C=C/C(=O)OC/C(C)=C\[C@@H](C)[C@@H]1O[Si](C)(C)C(C)(C)C
[2]; from C=CCC/C=C/C(=O)OC/C(C)=C\[C@@H](C)[C@H](O[Si](C)(C)C(C)(C)C)[C@H](C=C)OC, Grubbs-II catalyst, 0.664 mM, 110.0 °C
  ring closure, yield of all isomers: 55%

## CO[C@H]1/C=C/CCCCC(=O)OC/C(C)=C\[C@@H](C)C1=O [oxidized macrolactone (50), Oxidized Macrolactone]
[3]
  inhibitory activity on 4T1 tumor cell migration, in words: reduced by roughly an order of magnitude

## COC1C=CCCC=CC(=O)OCC(C)=CC(C)C1O (stereo not shown) [migrastatin core (45), Migrastatin Core]
HUVEC
  Minimum effect concentration: 10 µM
[4]
  stability (t1/2, mouse plasma): 20 min
[4]; 60 min of incubation, stable = intensity of HPLC signal unchanged
  stability (t1/2, mouse plasma), in words: hydrolyzed rapidly

## N-Methyl-migrastatin
HUVEC
  Minimum effect concentration: 200 µM
KYSE-520 cells
  Minimum effect concentration: 100 µM

## CO[C@H]1/C=C/CCCCC(O)(C(F)(F)F)CC/C(C)=C\[C@@H](C)[C@@H]1O (stereo partly shown) [macrocyclic CF3-alcohol (71), Macrocyclic CF3-Alcohol]
[3]
  inhibitory activity on 4T1 tumor cell migration, in words: displays the same activity profile as macroketone 60

## C[C@@H]1O[C@H]2C3=C(C(=O)[C@@H]4O[C@@H]4[C@H]3O)[C@@H]1[C@H]1[C@H](C)OC=C3[C@H](O)[C@H]4OC4C(=O)[C@@]312 (stereo partly shown) [epoxyquinol, epoxyquinol A, reference compound]
[3]
  IC50: 0.026 µM

## COC1C=CCCCCC(=O)OC(C(C)C)C(C)=CC(C)C1O [(S)-isopropyl macrolactone (65), (S)-Isopropyl Macrolactone]
[3]
  IC50: 227 µM
  inhibitory activity on 4T1 tumor cell migration, in words: only very weak effects on tumor cell migration

## COC1C=CCCCCC(=NNC(=O)CCOCCOCCOCCOCCNC(=O)CCCCC2SCC3NC(=O)NC32)CCC(C)=CC(C)C1O (mixture of isomers) [biotinylated macrohydrazone (73), Biotinylated Macrohydrazone]
[3]
  IC50: 0.331 µM
  inhibitory activity on 4T1 tumor cell migration, in words: inhibitory potency is largely retained

## CO[C@H]1/C=C/CCCCC(=O)OC/C(C)=C\[C@@H](C)[C@@H]1OC(C)=O [acetylated macrolactone (49), Acetylated Macrolactone]
[3]
  inhibitory activity on 4T1 tumor cell migration, in words: reduced by roughly an order of magnitude

## CO[C@H]1C=CCCCCC(=O)OC/C(C)=C\[C@@H](C)[C@@H]1O[Si](C)(C)C(C)(C)C
[2]; from C=CCCCCC(=O)OC/C(C)=C\[C@@H](C)[C@H](O[Si](C)(C)C(C)(C)C)[C@H](C=C)OC, Grubbs-II catalyst, 0.498 mM, 110.0 °C
  ring closure, yield of all isomers: 76%

## COC1C=CCCCCC(=O)OC(C(C)C)C(C)=CC(C)C1O [(R)-isopropyl macrolactone (68), (R)-Isopropyl Macrolactone]
[3]
  IC50: 146 µM
  inhibitory activity on 4T1 tumor cell migration, in words: only very weak effects on tumor cell migration

## CO[C@H]1C=CCC/C=C/C(=O)O[C@H]([C@H](C)C(=O)CCCC2CC(=O)NC(=O)C2)/C(C)=C\[C@@H](C)[C@@H]1O[Si](C)(C)C(C)(C)C
[2]; from C=CCC/C=C/C(=O)O[C@@H](/C(C)=C\[C@@H](C)[C@H](O[Si](C)(C)C(C)(C)C)[C@H](C=C)OC)[C@H](C)C(=O)CCCC1CC(=O)NC(=O)C1, Grubbs-II catalyst, 0.46 mM, 110.0 °C
  ring closure, yield of all isomers: 69%

## CO[C@H]1C=CCCCCC(=O)O[C@@H](C(C)C)/C(C)=C\[C@@H](C)[C@@H]1O
[2]; from C=CCCCCC(=O)O[C@H](/C(C)=C\[C@@H](C)[C@H](O[Si](C)(C)C(C)(C)C)[C@H](C=C)OC)C(C)C, Grubbs-II, 0.53 mM, 111.0 °C, 2 steps
  ring closure, yield of all isomers: 65%

## COC1C=CCCCCC(=O)OC(C(C)C(=O)CCCC2CC(=O)N(C)C(=O)C2)C(C)=CC(C)C1O (stereo not shown) [N-methyl-2,3-dihydromigrastatin (42), N-Methyl-2,3-Dihydromigrastatin]
[3]
  IC50: 7 µM

## CO[C@H]1C=CCCCCC(=O)O[C@H]([C@H](C)C(=O)CCCC2CC(=O)NC(=O)C2)/C(C)=C\[C@@H](C)[C@@H]1O[Si](C)(C)C(C)(C)C
[2]; from C=CCCCCC(=O)O[C@@H](/C(C)=C\[C@@H](C)[C@H](O[Si](C)(C)C(C)(C)C)[C@H](C=C)OC)[C@H](C)C(=O)CCCC1CC(=O)NC(=O)C1, Grubbs-II catalyst, 0.48 mM, 110.0 °C
  ring closure, yield of all isomers: 79%
